In patent US20040029926A1 (priority 2000, published 2004) one finds solubility data, which are given here for one molecule.

A short description of this data set: Solubility in water, visual, confirmed by HPLC assay of a saturated solution. Type of data set: physicochemical. Conditions: thermodynamic from solid. The procedure: Solubility of the Nitrate
The visual solubility was confirmed by an HPLC assay of a saturated solution. Solubility: 6 mg/ml.

Molecules are shown by their SMILES.

Consider `CN(CCOc1ccc(CC2SC(=O)NC2=O)cc1)c1ccccn1.O=[N+]([O-])O` (stereo not shown) [Nitrate, 5-[4-[2-(N-methyl-N-(2-pyridyl)amino)ethoxy]benzyl]thiazolidine-2,4-dione nitrate], for which the solubility (commonly the concentration that dissolves in the medium under given conditions) was 6000 µg/mL.
